Measurements as given in patent publication US8431888B2, “Electrospray and nanospray ionization of discrete samples in droplet format” (priority 2009, dated 2013).
Where two headings read alike, the source gives them in different places.

Assays:
[1] = target: T1, acetylcholinesterase (AchE) (Electrophorus electricus, UniProt O42275); assay: biochemical; format: biochemical; conditions: for AchE inhibition in screen (choline production): compound tested at 100 μM, triplicate, peak area ratio of choline to internal standard; for IC50: 10 inhibitor concentrations, 20 min at room temperature, choline formation, sigmoidal dose-response fit
T1 construct: purchased Sigma (St. Louis, Mo.) Type VI-S (catalogue number not given)

AchE = conditions: read-out: previously reported IC50, cited from earlier work
[2] = literature values, experimental conditions not identical

T1 sequence (O42275 24-633): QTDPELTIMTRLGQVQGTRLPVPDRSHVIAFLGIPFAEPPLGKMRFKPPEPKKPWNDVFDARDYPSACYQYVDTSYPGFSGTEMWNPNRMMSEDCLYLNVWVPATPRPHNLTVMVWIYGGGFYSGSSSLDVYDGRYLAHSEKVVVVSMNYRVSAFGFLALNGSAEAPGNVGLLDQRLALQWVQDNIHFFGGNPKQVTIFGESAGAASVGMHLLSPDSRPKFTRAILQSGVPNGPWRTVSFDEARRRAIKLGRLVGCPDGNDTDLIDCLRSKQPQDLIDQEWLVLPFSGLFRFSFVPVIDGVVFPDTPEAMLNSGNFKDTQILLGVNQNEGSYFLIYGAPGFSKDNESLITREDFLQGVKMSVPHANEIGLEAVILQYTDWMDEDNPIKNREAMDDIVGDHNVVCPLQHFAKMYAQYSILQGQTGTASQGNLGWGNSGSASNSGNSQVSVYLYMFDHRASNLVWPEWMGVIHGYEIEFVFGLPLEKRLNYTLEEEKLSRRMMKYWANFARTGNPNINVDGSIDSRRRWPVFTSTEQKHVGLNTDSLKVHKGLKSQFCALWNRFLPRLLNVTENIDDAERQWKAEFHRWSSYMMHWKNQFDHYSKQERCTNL

SMILES | AchE inhibition in screen (choline production) [1] | IC50 [1] [µM] | IC50 (AchE) [µM] | IC50 (AchE; [2]) [µM]
CC(C)NCC(O)c1ccc(O)c(O)c1 (centres unmarked) [isoproterenol] | some inhibition |  |  | 
CC[N+](C)(C)c1cccc(O)c1 [edrophonium] |  | 63 ± 11 | 5.4 | 
CCOC(=O)CC(SP(=S)(OC)OC)C(=O)OCC (centres unmarked) [malathion] |  | 480 ± 70 |  | 370
C[S+](C)[O-] [DMSO] | some inhibition |  |  | 
CN(C)C(=O)Oc1cccc([N+](C)(C)C)c1 [neostigmine] |  |  | 0.0113 | 
